This note sets out measurements from patent US20230051589A1, “COMPOUNDS AND COMPOSITIONS FOR TREATING CONDITIONS ASSOCIATED WITH NLRP ACTIVITY” (Novartis AG, priority 2018, published 2023).

The test system of one assay is IL-1β production in PMA-differentiated THP-1 cells. The assay is described as follows: IL-1β production in PMA-differentiated THP-1 cells stimulated with gramicidin (hTHP-1 assay, 2% fetal bovine serum; Procedures 1-3). The class given is cell-based, human. The note with it: Homo sapiens, THP-1, hTHP-1 assay containing 2% fetal bovine serum, Table B2, class symbols; read-out: IC50. On the procedure:
The following protocol is suitable for testing the activity of the compounds disclosed herein.
Procedure 1: IL-1β Production in PMA-Differentiated THP-1 Cells Stimulated with Gramicidin.
THP-1 cells were purchased from the American Type Culture Collection and sub-cultured according to instructions from the supplier. Cells were cultured in complete RPMI 1640 (containing 10% heat inactivated FBS, penicillin (100 units/ml) and streptomycin (100 μg/ml)), and maintained in log phase prior to experimental setup. Prior to the experiment, compounds were dissolved in dimethyl sulfoxide (DMSO) to generate a 30 mM stock. The compound stock was first pre-diluted in DMSO to 3, 0.34, 0.042 and 0.0083 mM intermediate concentrations and subsequently spotted using Echo550 liquid handler into an empty 384-well assay plate to achieve desired final concentration (e.g. 100, 33, 11, 3.7, 1.2, 0.41, 0.14, 0.046, 0.015, 0.0051, 0.0017 μM). DMSO was backfilled in the plate to achieve a final DMSO assay concentration of 0.37%. The plate was then sealed and stored at room temperature until required.
THP-1 cells were treated with PMA (Phorbol 12-myristate 13-acetate) (20 ng/ml) for 16-18 hours. On the day of the experiment the media was removed and adherent cells were detached with trypsin for 5 minutes. Cells were then harvested, washed with complete RPMI 1640, spun down, and resuspended in RPMI 1640 (containing 2% heat inactivated FBS, penicillin (100 units/ml) and streptomycin (100 μg/ml). The cells were plated in the 384-well assay plate containing the spotted compounds at a density of 50,000 cells/well (final assay volume 50 μl). Cells were incubated with compounds for 1 hour and then stimulated with gramicidin (5 μM) (Enzo) for 2 hours. Plates were then centrifuged at 340 g for 5 min. Cell free supernatant (40 μL) was collected using a 96-channel PlateMaster (Gilson) and the production of IL-1β was evaluated by HTRF (cisbio). The plates were incubated for 18 h at 4° C. and read using the preset HTRF program (donor emission at 620 nm, acceptor emission at 668 nm) of the SpectraMax i3x spectrophotometer (Molecular Devices, software SoftMax 6). A vehicle only control and a dose titration of CRID3 (100-0.0017 μM) were run concurrently with each experiment.
Procedure 2: IL-1β Production in PMA-Differentiated THP-1 Cells Stimulated with Gramicidin.
THP-1 cells were purchased from the American Type Culture Collection and sub-cultured according to instructions from the supplier. Prior to experiments, cells were cultured in complete RPMI 1640 (containing 10% heat inactivated FBS, penicillin (100 units/ml) and streptomycin (100 μg/ml)), and maintained in log phase prior to experimental setup. Prior to the experiment THP-1 were treated with PMA (Phorbol 12-myristate 13-acetate) (20 ng/ml) for 16-18 hours. Compounds were dissolved in dimethyl sulfoxide (DMSO) to generate a 30 mM stock. On the day of the experiment the media was removed and adherent cells were detached with trypsin for 5 minutes. Cells were then harvested, washed with complete RPMI 1640, spun down, resuspended in RPMI 1640 (containing 2% heat inactivated FBS, penicillin (100 units/ml) and streptomycin (100 μg/ml) . The cells were plated in a 384-well plate at a density of 50,000 cells/well (final assay volume 50 μl). Compounds were first dissolved in assay medium to obtain a 5× top concentration of 500 μM. 10 step dilutions (1:3) were then undertaken in assay medium containing 1.67% DMSO. 5× compound solutions were added to the culture medium to achieve desired final concentration (e.g. 100, 33, 11, 3.7, 1.2, 0.41, 0.14, 0.046, 0.015, 0.0051, 0.0017 μM). Final DMSO concentration was at 0.37%. Cells were incubated with compounds for 1 hour and then stimulated with gramicidin (5 μM) (Enzo) for 2 hours. Plates were then centrifuged at 340 g for 5 min. Cell free supernatant (40 μL) was collected using a 96-channel PlateMaster (Gilson) and the production of IL-1β was evaluated by HTRF (cisbio). […]
As usually defined, the IC50 is the concentration needed to halve the response being measured. Consider `N[S@](=O)(=NC(=O)Nc1c2c(cc3c1CCC3)CCC2)c1ccc(C2CCNC2)cc1F` (single isomer, unassigned) [Example 501, (S) or (R)-2-fluoro-N′-((1,2,3,5,6,7-hexahydro-s-indacen-4-yl)carbamoyl)-4-(pyrrolidin-3-yl)benzenesulfonimidamide], for which the half-inhibitory concentration (IC50) is 5000 to 30000 nM.

In the case of `N[S@@](=O)(=NC(=O)Nc1c2c(cc3c1CCC3)CCC2)c1ccc(C2CCNC2)cc1F` (single isomer, unassigned) [Example 502, (R) or (S)-2-fluoro-N′-((1,2,3,5,6,7-hexahydro-s-indacen-4-yl)carbamoyl)-4-(pyrrolidin-3-yl)benzenesulfonimidamide], the IC50 was in the range of 200 to 1000 nM.

The same assay, now with this note: Table B1; hTHP-1 assay containing 2% fetal bovine serum, gramicidin stimulation, IL-1β readout; read-out: hTHP-1 IC50 (average).
Turning to `CC(C)c1ccc(S(N)(=O)=NC(=O)Nc2c3c(cc4c2CCC4)CCC3)cn1` (single isomer, unassigned) [Example 402, (S) or (R)-N′-((1,2,3,5,6,7-hexahydro-s-indacen-4-yl)carbamoyl)-6-isopropyl-pyridine-3-sulfonimidamide], the IC50 was 1000 to 5000 nM.

With `NCc1ccc(S(N)(=O)=NC(=O)Nc2c3c(cc4c2CCC4)CCC3)cc1` (single isomer, unassigned) [Example 411, (R) or (S)-4-(aminomethyl)-N′-((1,2,3,5,6,7-hexahydro-5-indacen-4-yl)carbamoyl)-benzenesulfonimidamide], the IC50 fell in the range of 1000 to 5000 nM.

Consider `CN(C)Cc1ccc(S(N)(=O)=NC(=O)Nc2c3c(cc4c2CCC4)CCC3)nc1` (single isomer, unassigned) [Example 413, (R) or (S)-5-((dimethyl-amino)methyl)-N′-((1,2,3,5,6,7-hexahydro-s-indacen-4-yl)carbamoyl)-pyridine-2-sulfonimid-amide], for which the IC50 fell in the range of 200 to 1000 nM.

For the compound `CC(C)(O)c1ncc(S(N)(=O)=NC(=O)Nc2cc3c(c4c2CCC4)CCC3)s1` (single isomer, unassigned) [Example 419, (R) or (S)-N′-((1,2,3,6,7,8-hexahydro-as-indacen-4-yl)carbamoyl)-2-(2-hydroxypropan-2-yl)thia-zole-5-sulfonimidamide], the half-maximal inhibitory concentration (IC50) was 40 to 200 nM.

On to `[2H]C1([2H])CCc2cc3c(c(NC(=O)N=S(N)(=O)c4cnc(C(C)(C)O)s4)c21)C([2H])([2H])CC3` (single isomer, unassigned) [Example 421, (R) or (S)-N′-((1,2,3,5,6,7-hexahydro-s-indacen-4-yl-3,3,5,5-d4)carbamoyl)-2-(2-hydroxypropan-2-yl)-thiazole-5-sulfonimidamide], for which the IC50 fell in the range of 8 to 40 nM.

Turning to `[2H]C1([2H])CCc2c1cc1c(c2NC(=O)N=S(N)(=O)c2cnc(C(C)(C)O)s2)CCC1([2H])[2H]` (single isomer, unassigned) [Example 423, (R) or (S)-N′-((1,2,3,5,6,7-hexahydro-s-indacen-4-yl-1,1,7,7-d4)carbamoyl)-2-(2-hydroxypropan-2-yl)-thiazole-5-sulfonimidamide], the 50% inhibitory concentration (IC50) fell in the range of 8 to 40 nM.

The assay is the same for the next values; noted with them: hTHP-1 assay containing 2% fetal bovine serum, Table B2, class symbols; read-out: IC50.
For the compound `CC(C)(O)c1cc(F)c(S(N)(=O)=NC(=O)Nc2c3c(cc4c2CC4)CCC3)s1` (single isomer, unassigned) [Example 432], the IC50 fell in the range of 8 to 40 nM.

For `CC(C)(O)c1cc(F)c(S(N)(=O)=NC(=O)Nc2c3c(cc4c2CC4)CCC3)s1` (single isomer, unassigned) [Example 433], the IC50 is 200 to 1000 nM.

For the compound `Cc1c(C2CC2)cc2c(c1NC(=O)N=[S@@](N)(=O)c1cc(C(C)(C)O)cs1)CCC2` (single isomer, unassigned) [Example 498, (R) or (S)-N′-((6-cyclopropyl-5-methyl-2,3-dihydro-1H-inden-4-yl)carbamoyl)-4-(2-hydroxyprepan-2-yl)thiophene-2-sulfonimidamide], the IC50 lay within 8 to 40 nM.

For `NS(=O)(=NC(=O)Nc1c2c(cc3c1CCC3)CCC2)c1cnn2c1OC[C@H](O)C2` (single isomer, unassigned) [Example 515, (R,6R) or (S,6R)-N′-((1,2,3,5,6,7-hexahydro-s-indacen-4-yl)carbamoyl)-6-hydroxy-6,7-dihydro-5H-pyrazolo[5,1-b] [1,3]oxazine-3-sulfonimidamide], the IC50 lay within 40 to 200 nM.

Regarding `NS(=O)(=NC(=O)Nc1c2c(cc3c1CCC3)CCC2)c1cnn2c1OC[C@H](O)C2` (single isomer, unassigned) [Example 516, (S,6R) or (R,6R)-N′-((1,2,3,5,6,7-hexahydro-s-indacen-4-yl)carbamoyl)-6-hydroxy-6,7-dihydro-5H-pyrazolo[5,1-b] [1,3]oxazine-3-sulfonimidamide], the half-inhibitory concentration (IC50) was in the range of 1000 to 5000 nM.

`CN(C)Cc1cnc(S(N)(=O)=NC(=O)Nc2c3c(cc4c2CCC4)CCC3)c(F)c1` (single isomer, unassigned) [Example 517, (S) or (R)-5-((dimethylamino)methyl)-3-fluoro-N′-((1,2,3,5,6,7-hexahydro-s-indacen-4-yl)carbamoyl)pyridine-2-sulfonimidamide]: the IC50 was in the range of 5000 to 30000 nM.

With `CN(C)Cc1cnc(S(N)(=O)=NC(=O)Nc2c3c(cc4c2CCC4)CCC3)c(F)c1` (single isomer, unassigned) [Example 518, (R) or (S)-5-((dimethylamino)methyl)-3-fluoro-N′-((1,2,3,5,6,7-hexahydro-s-indacen-4-yl)carbamoyl) pyridine-2-sulfonimidamide], the IC50 lay in the range of 1000 to 5000 nM.

In the case of `CNCC(C)(C)c1ccc(S(N)(=O)=NC(=O)Nc2c3c(cc4c2CCC4)CCC3)cc1` (single isomer, unassigned) [Example 519, (R) or (S)-N′-((1,2,3,5,6,7-hexahydro-s-indacen-4-yl)carbamoyl)-4-(2-methyl-1-(methylamino)propan-2-yl) benzenesulfonimidamide], the IC50 fell in the range of 1000 to 5000 nM.

On to `CNCC(C)(C)c1ccc(S(N)(=O)=NC(=O)Nc2c3c(cc4c2CCC4)CCC3)cc1` (single isomer, unassigned) [Example 520, (S) or (R)-N′-((1,2,3,5,6,7-hexahydro-s-indacen-4-yl)carbamoyl)-4-(2-methyl-1-(methylamino)propan-2-yl) benzenesulfonimidamide], for which the IC50 was 5000 to 30000 nM.

With `Cc1c(C2CC2)cc2c(c1NC(=O)N=[S@](N)(=O)c1cc(C(C)(C)O)cs1)CCC2` (single isomer, unassigned) [Example 521, (S) or (R)-N′-((6-cyclopropyl-5-methyl-2,3-dihydro-1H-inden-4-yl)carbamoyl)-4-(2-hydroxyprepan-2-yl)thiophene-2-sulfonimidamide], the IC50 lay within 1000 to 5000 nM.

Turning to `CC(C)(O)c1cncc(S(N)(=O)=NC(=O)Nc2c3c(c(C#N)c4c2CCC4)CCC3)c1` (single isomer, unassigned) [Example 522, (R) or (S)-N′-((8-cyano-1,2,3,5,6,7-hexahydro-s-indacen-4-yl)carbamoyl)-5-(2-hydroxypropan-2-yl)pyridine-3-sulfonimidamide], the IC50 is 200 to 1000 nM.

Consider `CC(C)(O)c1cncc(S(N)(=O)=NC(=O)Nc2c3c(c(C#N)c4c2CCC4)CCC3)c1` (single isomer, unassigned) [Example 523, (S) or (R)-N′-((8-cyano-1,2,3,5,6,7-hexahydro-s-indacen-4-yl)carbamoyl)-5-(2-hydroxypropan-2-yl)pyridine-3-sulfonimidamide], for which the 50% inhibitory concentration (IC50) is 5000 to 30000 nM.
